In PubChem BioAssay (NCI):
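The compound was tested at five concentrations on cells cultured in 96-well plates, with a 48-hour exposure period. The concentration for 50% growth inhibition is given as GI50. TGI: total growth inhibition.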

Tests used:
Experiment in all cases: growth of human tumour cells (NCI), 48 h
[1] = tested on: A549 NSCLC
[2] = tested on: COLO 205 colon
[3] = tested on: HL-60(TB) leukemia
[4] = tested on: HOP-92 NSCLC
[5] = tested on: LOX IMVI melanoma
[6] = tested on: M14 melanoma
[7] = tested on: OVCAR-5 ovarian
[8] = tested on: SK-OV-3 ovarian
[9] = tested on: SW-620 colon

## COC(=O)CCC(NC(=S)N/N=C(\C)c1ccc[nH]1)C(=O)OC (configuration not stated)
[1]
  TGI: > 100 µM
[2]
  TGI: > 100 µM
[3]
  TGI: > 100 µM
[4]
  TGI: > 100 µM
[5]
  TGI: > 100 µM
[6]
  TGI: > 100 µM
[7]
  TGI: > 100 µM
[8]
  TGI: > 100 µM
[9]
  TGI: > 100 µM

## CCCn1c(SCCSc2c3ccccc3c(-c3nc(F)nc(F)n3)n2CCC)c2ccccc2c1-c1nc(F)nc(F)n1
[1]
  TGI: > 100 µM
[2]
  TGI: > 100 µM
[3]
  TGI: > 100 µM
[4]
  TGI: > 100 µM
[6]
  TGI: > 100 µM
[7]
  TGI: > 100 µM
[8]
  TGI: > 100 µM
[9]
  TGI: 32.6 µM

## COc1cc(CNc2nc3c(N)cc(C(F)(F)F)cc3nc2-c2ccccc2)cc(OC)c1OC
[1]
  TGI: > 100 µM
[2]
  TGI: > 100 µM
[3]
  GI50: > 100 µM
  TGI: > 100 µM
[4]
  TGI: > 100 µM
[5]
  TGI: > 100 µM
[6]
  TGI: > 100 µM
[7]
  TGI: > 100 µM
[8]
  GI50: > 100 µM
  TGI: > 100 µM
[9]
  TGI: > 100 µM

## C=CC(=O)N1C/C(=C\c2ccc(Cl)c(Cl)c2)C(=O)/C(=C/c2ccc(Cl)c(Cl)c2)C1
[2]
  TGI: 0.243 µM
[4]
  TGI: 2.94 µM
[5]
  TGI: 0.842 µM
[6]
  TGI: 0.702 µM
[7]
  TGI: 1.02 µM
[8]
  TGI: 1.61 µM
[9]
  TGI: 0.262 µM

## COc1ccc2c(c1)[n+](=O)c(C(=O)c1cccs1)c(C(F)(F)F)n2[O-]
[1]
  GI50: 7.99 µM
  TGI: > 50 µM
[2]
  GI50: 7.49 µM
  TGI: > 50 µM
[3]
  GI50: 4.04 µM
  TGI: > 50 µM
[4]
  GI50: 7.91 µM
  TGI: 49.5 µM
[5]
  GI50: 2.09 µM
  TGI: 12.7 µM
[6]
  GI50: 10.9 µM
  TGI: > 50 µM
[7]
  GI50: 4.81 µM
  TGI: > 50 µM
[8]
  GI50: 6.41 µM
  TGI: > 50 µM
[9]
  GI50: 8.43 µM
  TGI: > 50 µM

## COc1cc2c(cc1OC)C(C(=O)O)C(c1ccccc1)N(C)C2=O (configuration not stated)
[1]
  TGI: > 100 µM
[2]
  TGI: > 100 µM
[6]
  TGI: > 100 µM
[7]
  TGI: > 100 µM
[8]
  TGI: > 100 µM
[9]
  TGI: > 100 µM

## CC(C)N(C(=O)c1cccc(C(=O)N(C(C)C)C(C)C)c1)C(C)C
[1]
  TGI: > 100 µM
[2]
  TGI: > 100 µM
[3]
  TGI: > 100 µM
[4]
  TGI: > 100 µM
[5]
  TGI: > 100 µM
[6]
  TGI: > 100 µM
[7]
  TGI: > 100 µM
[8]
  TGI: > 100 µM
[9]
  TGI: > 100 µM

## Cc1ccc(/C=C/c2c(C(=O)/C=C/c3ccccc3)c(C)nc3ccccc23)cc1
[1]
  GI50: 2.04 µM
  TGI: 5.6 µM
[2]
  GI50: 1.6 µM
  TGI: 3.67 µM
[3]
  GI50: 2.04 µM
  TGI: 4.89 µM
[4]
  GI50: 1.52 µM
  TGI: 4.34 µM
[5]
  GI50: 1.64 µM
  TGI: 3 µM
[6]
  GI50: 1.87 µM
  TGI: 4.52 µM
[7]
  GI50: 1.9 µM
  TGI: 3.53 µM
[9]
  GI50: 1.58 µM
  TGI: 4.61 µM

## C/C(CC(=O)Nc1cccc(Cl)c1C)=N\NC(N)=S
[1]
  TGI: > 100 µM
[2]
  TGI: > 100 µM
[3]
  TGI: > 100 µM
[4]
  TGI: > 100 µM
[5]
  TGI: > 100 µM
[6]
  TGI: > 100 µM
[7]
  TGI: > 100 µM
[8]
  TGI: > 100 µM
[9]
  TGI: > 100 µM

## O=C1C2C(C(=O)N1c1ccccc1)C1c3ccccc3C2C2C(=O)N(c3ccccc3)C(=O)C21 (configuration not stated)
[1]
  TGI: > 100 µM
[2]
  TGI: > 100 µM
[3]
  TGI: 44.9 µM
[4]
  TGI: > 100 µM
[5]
  TGI: > 100 µM
[6]
  TGI: > 100 µM
[7]
  TGI: 99.5 µM
[8]
  TGI: > 100 µM
[9]
  TGI: > 100 µM

## ClC(Cl)=C(Cl)C1(Cl)CC1COCc1ccccc1 (configuration not stated)
[1]
  TGI: > 100 µM
[2]
  TGI: 61.1 µM
[3]
  TGI: 41.9 µM
[4]
  TGI: 42.8 µM
[5]
  TGI: 54.8 µM
[6]
  TGI: > 100 µM
[7]
  TGI: > 100 µM
[8]
  TGI: > 100 µM
[9]
  TGI: > 100 µM

## C[N+]1=c2c3cccc4cccc(c(=O)n2CC1)c43
[1]
  TGI: 53 µM
[2]
  TGI: 24.6 µM
[3]
  TGI: 46.3 µM
[4]
  TGI: 61.8 µM
[5]
  TGI: 17.6 µM
[6]
  TGI: 28.7 µM
[7]
  TGI: 33.5 µM
[8]
  TGI: 93.8 µM
[9]
  TGI: > 100 µM

## O=c1cc(-c2ccccn2)[nH]c2cccc(F)c12
[1]
  TGI: > 100 µM
[2]
  TGI: > 100 µM
[3]
  TGI: > 100 µM
[4]
  TGI: > 100 µM
[5]
  TGI: > 100 µM
[6]
  TGI: > 100 µM
[7]
  TGI: > 100 µM
[8]
  TGI: > 100 µM
[9]
  TGI: > 100 µM

## CCC[CH2][Sn]([CH2]CCC)([O]C(=O)c1cc(OC)c(OC)cc1OC)[O][Sn]([CH2]CCC)([CH2]CCC)[O]C(=O)c1cc(OC)c(OC)cc1OC
[1]
  GI50: 1.67 µM
  TGI: 3.5 µM
[2]
  GI50: 0.381 µM
  TGI: 1.32 µM
[3]
  GI50: 0.288 µM
  TGI: 1.31 µM
[4]
  GI50: 0.206 µM
  TGI: 0.564 µM
[5]
  GI50: 0.257 µM
  TGI: 0.782 µM
[6]
  GI50: 0.282 µM
  TGI: 0.797 µM
[7]
  GI50: 1.75 µM
  TGI: 3.14 µM
[8]
  GI50: 1.21 µM
  TGI: 2.58 µM
[9]
  GI50: 0.182 µM
  TGI: 0.536 µM
